Laboratory results: patent US10709704B2, “Treating neural disease with tyrosine kinase inhibitors” (GEORGETOWN UNIVERSITY, priority 2012, dated 2020)

How the values were obtained:
caspase-3 activity = test: Caspase-3 activity, lentiviral α-Synuclein mice; assay type: in vivo, mouse
Text: To measure caspase-3 activity in the animal models, we used EnzChek® caspase-3 assay kit #1 (Invitrogen) on cortical extracts and Z-DEVD-AMC substrate and the […] was read according to manufacturer's protocol.

[1] = tested on: dopamine and homovanillic acid (HVA) levels; test: Dopamine and HVA ELISA, lentiviral α-Synuclein mice; assay type: in vivo, mouse; settings: 10 mg/kg Nilotinib or 5 mg/Kg Bosutinib
Protocol: Total brain or mesencephalon were collected and fresh 50 μl (1 μg/μl) brain lysates (in STEN buffer) were detected with 50 μl primary antibody (1 h) and 100 μl anti-rabbit secondary antibody (30 min) at RT according to manufacturer's protocols (Abnova, Cat # BOLD01090J00011) for DA and (Eagle Biosciences, Cat # HVA34-K01) for HVA.

[2] = tested on: autophagic vacuoles and lysosomes; test: Subcellular fractionation and ELISA, lentiviral Aβ1-42 mice; assay type: in vivo, mouse
Protocol: Histograms show Aβ1-42 in subcellular fractions, including autophagic vacuole-10 (AV-10; phagophores+autophagosomes), AV-20 (autophagosomes) and lysosomes. […] Brain tissues were fractionated to isolate AVs and human specific ELISA was performed to determine protein contents. […] N=5 animals per treatment.
Brain tissues were fractionated to isolate AVs and human specific ELISA was performed to determine protein contents.
(§1) 0.5 g of Frozen human or animal brains were homogenized at low speed (Cole-Palmer homogenizer, LabGen 7, 115 Vac) in 1×STEN buffer and centrifuged at 1,000 g for 10 minutes to isolate the supernatant from the pellet. The pellet was re-suspended in 1×STEN buffer and centrifuged once to increase the recovery of lysosomes. The pooled supernatants were then centrifuged at 100,000 rpm for 1 hour at 4° C. to extract the pellet containing autophagic vacuoles (AVs) and lysosomes. The pellet was then re-suspended in 10 ml (0.33 g/ml) 50% Metrizamide and 10 ml in cellulose nitrate tubes. A discontinuous Metrizamide gradient was constructed in layers from bottom to top as follows: 6 ml of pellet suspension, 10 ml of 26%; 5 ml of 24%; 5 ml of 20%; and 5 ml of 10% Metrizamide (Marzella et al., 1982). After centrifugation at 10,000 rpm for 1 hour at 4° C., the fraction floating on the 10% layer (Lysosome) and the fractions banding at the 24%/20% (AV 20) and the 20%/10% (AV10) Metrizamide inter-phases were collected by a syringe and examined.
Animal brains were homogenized at low speed (Cole-Palmer homogenizer, LabGen 7, 115 Vac) in 1×STEN buffer and centrifuged at 1,000 g for 10 minutes to isolate the supernatant from the pellet. The pellet was re-suspended in 1×STEN buffer and centrifuged once to increase the recovery of lysosomes. The pooled supernatants were then centrifuged at 100.000 rpm for 1 hour at […] to extract the pellet containing autophagic vacuoles (AVs) and lysosomes. The pellet was then re-suspended in 10 ml (0.33 g/ml) 50% Metrizamide and 10 ml in cellulose nitrate tubes. […]

[3] = tested on: molecular markers of autophagy; test: Western blot of autophagy markers, lentiviral Aβ1-42 parkin−/− mice; assay type: in vivo, mouse
[4] = tested on: autophagic vacuoles and lysosomes; test: Subcellular fractionation (AV-10, AV-20, lysosome) and ELISA, Tg-APP mice; assay type: in vivo, mouse
Protocol: Histograms show Aβ1-42 in subcellular fractions, including autophagic vacuole-10 (AV-10; phagophores+autophagosomes), AV-20 (autophagosomes) and lysosomes. […] Brain tissues were fractionated to isolate AVs and human specific ELISA was performed to determine protein contents. N=5 animals per treatment.
as §1
as §1, with “Animal” for “0.5 g of Frozen human or animal”, “100.000” for “100,000”, “[…]” for “4°”, “Metrizamide.” for “Metrizamide (Marzella et al., 1982).”, “100,000” for “10,000”, “40 C,” for “4° C.,”

parkin = test: Parkin levels in neuroblastoma cells (ELISA, WB); assay type: cell-based
Protocol: Human neuroblastoma M17 or rat B35 cells were grown in 24 well dishes (Falcon). Transient transfection was performed with 3 μg Aβ1-42 cDNA, or 3 μg LacZ cDNA for 24 hr. […] Cells were harvested 48 hr after transfection.
Parkin levels were measured via ELISA using parkin−/− brain extracts as a specificity control (FIG. 66A).

Tg-APP mice = test: Morris water maze, Tg-APP mice; assay type: in vivo, mouse
Protocol: (§2) All animals were pre-trained (trials) to swim for 90 seconds in a water maze containing a platform submerged in water (invisible) for 4 consecutive days once a day. The pretraining trials “teach” the swimming animals that to “escape”, they must find the hidden platform, and stay on it. The water maze “test” was performed on day 5, (40), when the platform was removed and mice have to swim and find it, thus assessing acquisition and retention. All parameters, including distance travelled to reach platform, speed to get to the platform, latency or time spent on platform, and platform entry were digitally recorded on a computer and analyzed by a blind investigator.
These experiments were repeated in 1 year old Tg-APP mice and age-matched control (C57BL/6).

[5] = tested on: molecular markers of autophagy; test: Western blot of autophagy markers, lentiviral α-Synuclein mice; assay type: in vivo, mouse; settings: Nilotinib 10 mg/kg IP daily 3 weeks
Text: Rabbit polyclonal (1:1000) tubulin (Thermo Scientific) was used.

[6] = tested on: lentiviral Aβ1-42-injected parkin−/− mice; test: Morris water maze, lentiviral Aβ1-42 parkin−/− mice; assay type: in vivo, mouse
Protocol: as §2
The Morris water maze test was performed after 4 days of training trials in which the platform was placed in the SE corner and mice were initially placed in the NW corner of the pool.

transgenic A53T mice = test: Rotarod, A53T mice; assay type: in vivo, mouse
Text: Mice were placed on an accelerating rotarod (Columbus Instruments) equipped with individual timers for each mouse. […] All values were converted to % control.

[7] = lentiviral Aβ1-42 mice, IP 10 mg/kg Nilotinib or 5 mg/Kg Bosutinib daily 3 weeks
[8] = IP 10 mg/kg Nilotinib or 5 mg/Kg Bosutinib daily 3 weeks

For `Cc1cn(-c2cc(NC(=O)c3ccc(C)c(Nc4nccc(-c5cccnc5)n4)c3)cc(C(F)(F)F)c2)cn1` [Nilotinib], the “caspase-3 activity, Nilotinib vs DMSO” value (caspase-3 activity; LacZ injected mice, daily IP 10 mg/kg) was “did not result in any difference”, the caspase-3 activity (caspase-3 activity; lentiviral α-Synuclein mice, daily IP 10 mg/kg Nilotinib 3 weeks) was 140 % of LacZ levels and the “α-synuclein induced loss of dopamine and HVA levels (ELISA)” value [1] was “reversed these effects”. The “autophagic clearance of Aβ1-42 (deposition in AV-20 and lysosome)” value [2, 7] was “enhances autophagic clearance”, the “autophagic clearance of p-Tau ser 396 (deposition in AV-20 and lysosome)” value [2, 7] was “enhances autophagic clearance” and the “autophagic clearance of Aβ1-42 (deposition in AV-20 and lysosomes)” value ([2]; wild type or Tau−/− mice, lentiviral Aβ1-42, 10 mg/kg Nilotinib or 5 mg/Kg Bosutinib daily 3 weeks) was “enhances autophagic clearance”. The “Atg12 and Atg5 levels (WB)” value [3] was “not changed”, the “LC3-II (WB)” value [3] was “did not clear” and the “autophagic clearance of Aβ1-40 (deposition in AV-20 and lysosome)” value [4, 8] was “enhances autophagic clearance”. The “autophagic clearance of Aβ1-42 (deposition in AV-20 and lysosome)” value [4, 8] was “enhances autophagic clearance”, the “autophagic clearance of p-Tau ser 396 (deposition in AV-20 and lysosome)” value [4, 8] was “enhances autophagic clearance” and the “autophagic clearance of parkin (deposition in AV-20 and lysosome)” value ([4]; IP 10 mg/kg Nilotinib or 5 mg/kg Bosutinib daily 3 weeks) was “enhances autophagic clearance”. The “increase in parkin (ELISA), non-significant” value (parkin; 10 μM Nilotinib) was 17%, the “increase in parkin (ELISA)” value (parkin; Aβ1-42 + Nilotinib) was 24% and the “increase in Nilotinib-induced parkin on blocking beclin-1 with shRNA (WB)” value (parkin; shRNA beclin-1 + Nilotinib) was 28%. For the same molecule, the “time spent in SE” value (Tg-APP mice; 1 year old Tg-APP mice, 10 mg/kg daily for 3 weeks) was “reversed time spent in SE back to control level”, the “distance traveled above control levels” value (Tg-APP mice; Nilotinib treated Tg-APP mice) was 30% and the “entries into SE (platform entry) higher than control” value (Tg-APP mice; Tg-APP+Nilotinib) was 30%. For the same molecule, the “decrease in LC3-II compared to LC3-I” value [5] was 39%, the “decrease in LC3-II compared to MAP-2” value [5] was 41% and the “decrease in P62” value [5] was 69%. The “increase in Atg-5 compared to actin” value [5] was 43%, the “increase in Atg-12 compared to actin” value [5] was 58% and the “increase in beclin-1 compared to actin” value [5] was 62%. For the same molecule, the “decrease in distance travelled compared to control and wild type” value ([6]; Aβ1-42 parkin−/− mice with Nilotinib (first of '±Nilotinib ... respectively')) was 80%, the “time in NW quadrant” value ([6]; Aβ1-42 parkin−/− mice with and without Nilotinib) was “remained significantly more in the NW quadrant” and the “increase in rotarod motor performance above control levels” value (transgenic A53T mice; 6-8 months old A53T mice, Nilotinib) was 45%. The “motor performance (rotarod)” value (transgenic A53T mice; A53T mice, 10 mg/kg Nilotinib or 5 mg/Kg Bosutinib once daily for 3 weeks) was “increased”.
